Results published in patent US10344019B2 (priority 2010, dated 2019).
Like-named read-outs stand apart in the source and are kept apart here.

Tests used:
Experiment in all cases: microbe, parasite or virus in culture
Assay type in all cases: cell-based
[1] = system: HCV 3a RLuc cells (NS5A chimeric genotype 1b Con1 replicon with consensus genotype 3a NS5A gene); conditions: Hepatitis C virus
Method: (§1) Evaluation of cell-based anti-HCV activity: Antiviral potency (EC50) was determined using a Renilla luciferase (RLuc)-based HCV replicon reporter assay. To perform the assay for genotype 1 and 2a JFH-1, HCV 1b RLuc cells (harboring a dicistronic genotype 1b Con1 replicon that encodes a RLuc reporter), or HCV 1a RLuc cells (harboring a dicistronic genotype 1a H77 replicon that encodes a RLuc reporter), or HCV 2a JFH-1 Rluc cells (harboring a dicistronic genotype 2a JFH-1 replicon that encodes a RLuc reporter) were dispensed into 384-well plates. To perform the assay for genotype 2a (with M31 present) or 2b, HCV 2a Rluc or 2b Rluc cells (both with M31 present) harboring a dicistronic NS5A chimeric genotype 2a JFH-1 replicon that encodes a RLuc reporter and either genotype 2a J6 strain NS5A gene or genotype 2b MD2b-1 NS5A gene (based on Los Alamos HCV database isolates, both with M31 present) respectively, were dispensed into 384-well plates. To perform the assay for genotype 3 and 4, HCV 3a RLuc or 4a Rluc cells harboring a dicistronic NS5A chimeric genotype 1b Con1 replicon that encodes a RLuc reporter and either a consensus genotype 3a NS5A gene or genotype 4a NS5A gene (based on Los Alamos HCV database isolates) respectively, were dispensed into 384-well plates. Compounds were re-suspended in DMSO at a concentration of 10 mM and serially diluted in DMSO either manually or using an automated pipeting instrument. Serially diluted compounds were mixed with cell culture media and added to the seeded cells. […] 72 hours later, cells were lysed and Renilla luciferase activity quantified as recommended by the manufacturer (Promega-Madison, Wis.). Non-linear regression was performed to calculate EC50 values.

[2] = system: HCV 2a JFH-1 Rluc cells (dicistronic genotype 2a JFH-1 replicon, RLuc reporter); conditions: Hepatitis C virus, genotype 2a JFH-1 replicon, read-out: 2a JFH
Method: as §1

[3] = system: HCV 4a Rluc cells (NS5A chimeric genotype 1b Con1 replicon with genotype 4a NS5A gene); conditions: Hepatitis C virus, read-out: 4a
Method: as §1

[4] = system: HCV 1a RLuc cells (dicistronic genotype 1a H77 replicon, RLuc reporter); conditions: read-out: 1a
Method: as §1

[5] = system: HCV 1b RLuc cells (dicistronic genotype 1b Con1 replicon, RLuc reporter); conditions: Hepatitis C virus, read-out: 1b (nM)
Method: as §1

[6] = read-out: 3a, genotype 3a NS5A chimeric 1b Con1 replicon
[7] = Hepatitis C virus, genotype 1a H77 replicon, RLuc reporter
[8] = read-out: 3a, genotype 3a replicon
[9] = Hepatitis C virus, genotype 1a replicon
[10] = read-out: 3a, Table 1, genotype 3a NS5A chimeric replicon
[11] = Hepatitis C virus, 72 h, Table 1, genotype 1a H77 replicon, 72 hours
[12] = read-out: 3a, Table 2, genotype 3a NS5A chimeric replicon
[13] = Hepatitis C virus, 72 h, Table 2, genotype 1a H77 replicon, 72 hours

Row | SMILES | EC50 [1, 6] [pM] | EC50 ([2]; RLuc reporter) [pM] | EC50 [3] [pM] | EC50 [4, 7] [pM] | EC50 [5] [nM] | EC50 [1, 8] [pM] | EC50 [2] [pM] | EC50 [4, 9] [pM] | also measured
1 | COC(=O)N[C@H](C(=O)N1CCC[C@H]1c1ncc(-c2ccc3cc(-c4ccc(-c5cnc([C@@H]6CCCN6C(=O)[C@@H](NC(=O)OC)C6CCSCC6)[nH]5)cc4)ccc3c2)[nH]1)C(C)C [Example 278] | 1000 to 4990 | 1 to 999 | 1 to 990 | 1 to 999 | 0.013 | – | – | – | –
2 | COC(=O)N[C@H](C(=O)N1[C@H]2CC[C@H](C2)[C@H]1c1nc2ccc3cc(-c4ccc5c(ccc6nc([C@@H]7CCCN7C(=O)[C@@H](NC(=O)OC)C7CCOCC7)[nH]c65)c4)ccc3c2[nH]1)C(C)C [Example 338] | – | – | 1 to 990 | – | 0.127 | 1 to 990 | 1 to 999 | 1 to 999 | –
3 | COC(=O)N[C@H](C(=O)N1[C@@H]2CC[C@@H](C2)[C@H]1c1nc2ccc3cc(-c4ccc(-c5cnc([C@@H]6C[C@H]7C[C@H]7N6C(=O)[C@@H](NC(=O)OC)C6CCOCC6)[nH]5)cc4)ccc3c2[nH]1)C(C)C [Example 367] | – | – | 1 to 990 | – | 0.049 | 1 to 990 | 1 to 999 | 1 to 999 | –
4 | COC(=O)N[C@H](C(=O)N1CCC[C@H]1c1nc2c([nH]1)-c1ccc(-c3ccc4cc(-c5cnc([C@@H]6CCCN6C(=O)[C@H](NC(=O)CN6CCOCC6)c6ccccc6)[nH]5)ccc4c3)cc1CC2)C(C)C [Example 245] | 1 to 990 | 1 to 999 | 1 to 990 | 1 to 999 | 0.017 | – | – | – | –
5 | COC(=O)NC(C(=O)N1CCC[C@H]1c1ncc(-c2ccc(-c3ccc4cc(-c5cnc([C@@H]6CCCN6C(=O)[C@@H](NC(=O)OC)C(C)C)[nH]5)ccc4c3)cc2)[nH]1)c1cnccn1 (stereo partly shown) [Example 230] | 1000 to 4990 | 1000 to 44000 | 1000 to 4990 | 1 to 999 | 0.012 | – | – | – | –
6 | COC(=O)N[C@H](C(=O)N1CCC[C@H]1c1nc2ccc3cc(-c4ccc(-c5cnc([C@@H]6CCCN6C(=O)[C@@H](NC(=O)OC)C6CCOCC6)[nH]5)cc4C#CC4CC4)ccc3c2[nH]1)C(C)C [Example 350] | – | – | 1 to 990 | – | 0.02 | 1 to 990 | 1 to 999 | 1 to 999 | –
7 | COC(=O)N[C@H](C(=O)N1CCC[C@H]1c1nc(Cl)c(-c2ccc(-c3ccc(-c4[nH]c([C@@H]5CCCN5C(=O)[C@@H](NC(=O)OC)C5CCOCC5)nc4Cl)cc3)cc2)[nH]1)C(C)C [Example 360] | – | – | 1 to 990 | – | 0.053 | 1 to 990 | 1 to 999 | 1 to 999 | –
8 | COC(=O)N[C@H](C(=O)N1CCC[C@H]1c1ncc(-c2ccc3cc(-c4ccc(-c5cnc([C@@H]6CCCN6C(=O)[C@@H](NC(=O)OCc6ccccc6)C6CCSCC6)[nH]5)cc4)ccc3c2)[nH]1)C(C)C [Example 275] | > 5000 | > 44000 | > 5000 | – | 2.15 | – | – | – | EC50 ([4]; genotype 1a H77 replicon, RLuc reporter): 1000 to 44000 pM
9 | COC(=O)N[C@H](C(=O)N1CCC[C@H]1c1ncc(-c2cc3c4c(c2)CCc2cc(-c5cnc([C@@H]6CCCN6C(=O)[C@@H](NC(=O)OC)C(C)C)[nH]5)cc(c2-4)CC3)[nH]1)C(C)C [Example 20] | – | – | 1 to 990 | – | – | – | – | – | EC50 [1, 10]: 1 to 990 pM; EC50 ([2]; 72 h, Table 1, 72 hours): 1 to 999 pM; EC50 [4, 11]: 1 to 999 pM; EC50 ([5]; 72 h): 0.021 nM
10 | COC(=O)N[C@H](C(=O)N1CCC[C@H]1c1ncc(-c2cc3c4c(c2)OCc2cc(-c5cnc([C@@H]6CCCN6C(=O)C(c6ccccc6)N(C)C)[nH]5)cc(c2-4)OC3)[nH]1)C(C)C (stereo partly shown) [Example 307] | – | – | 1 to 990 | – | 0.091 | 1 to 990 | 1 to 999 | 1 to 999 | –
11 | CCN(C(=O)OC)[C@@H](C(=O)N1CCC[C@H]1c1ncc(-c2ccc(-c3ccc4cc(-c5cnc([C@@H]6CCCN6C(=O)[C@@H](NC(=O)OC)C(C)C)[nH]5)ccc4c3)cc2)[nH]1)c1ccccc1 [Example 203] | > 5000 | 1000 to 44000 | 1 to 990 | > 44000 | 0.124 | – | – | – | –
12 | COC(=O)N[C@H](C(=O)N1CCC[C@H]1c1ncc(-c2cc3c(cc2F)-c2ccc(-c4cnc([C@@H]5CCCN5C(=O)[C@@H](NC(=O)OC)C(C)C)[nH]4)c(F)c2CO3)[nH]1)C(C)C [Example 341] | – | – | 1 to 990 | – | 0.006 | 1 to 990 | 1 to 999 | 1 to 999 | –
13 | COC(=O)NC(C(=O)N[C@H](c1ncc(-c2ccc3c(c2)C(F)(F)c2cc(-c4ccc5nc([C@@H]6CCCN6C(=O)[C@@H](NC(=O)OC)[C@@H](C)OC)[nH]c5c4)ccc2-3)[nH]1)C(C)C)C(C)C (stereo partly shown) [Example 248] | > 5000 | 1000 to 44000 | 1 to 990 | 1000 to 44000 | 0.024 | – | – | – | –
14 | COC(=O)N[C@H](C(=O)N1CCC[C@H]1c1ncc(-c2ccc3c(ccc4cc(-c5cnc([C@@H]6[C@H]7CC[C@H](C7)N6C(=O)[C@@H](NC(=O)OC)C(C)C)[nH]5)ccc43)c2)[nH]1)C(C)C [Example 303] | – | – | 1 to 990 | – | 0.008 | 1 to 990 | 1 to 999 | 1 to 999 | –
15 | COC(=O)NC(C(=O)N1CCC[C@@H]1c1ncc(-c2cc3c4c(c2)OCc2cc(-c5cnc([C@@H]6CCCN6C(=O)[C@@H](NC(=O)OC)C(C)C)[nH]5)cc(c2-4)OC3)[nH]1)C(C)C (stereo partly shown) [Example 10] | – | – | 1 to 990 | – | – | – | – | – | EC50 [1, 10]: 1 to 990 pM; EC50 ([2]; 72 h, Table 1, 72 hours): 1 to 999 pM; EC50 [4, 11]: 1000 to 44000 pM; EC50 ([5]; 72 h): 0.406 nM
16 | COC(=O)N[C@H](C(=O)N1CCC[C@H]1c1ncc(-c2ccc(-c3ccc(-c4cnc([C@@H]5CCCN5C(=O)[C@H](NC(=O)OC)c5ccccc5)[nH]4)cc3)cc2)[nH]1)C(C)C [Example 60] | – | – | 1 to 990 | – | – | – | – | – | EC50 [1, 12]: 1 to 990 pM; EC50 ([2]; 72 h, Table 2, 72 hours): 1 to 999 pM; EC50 [4, 13]: 1000 to 44000 pM; EC50 ([5]; 72 h): 0.02 nM
17 | COC(=O)N[C@H](C(=O)N1CCC[C@H]1c1ncc(-c2ccc3cc(-c4ccc(-c5cnc([C@@H]6CCCN6C(=O)[C@H](NC(=O)CN(C)C)c6ccccc6)[nH]5)cc4)ccc3c2)[nH]1)C(C)C [Example 237] | 1 to 990 | 1 to 999 | 1 to 990 | 1 to 999 | 0.023 | – | – | – | –
18 | COC(=O)N[C@H](C(=O)N1[C@@H]2CC[C@@H](C2)[C@H]1c1nc2c([nH]1)-c1ccc(-c3ccc4c(ccc5nc([C@@H]6CCCN6C(=O)[C@@H](NC(=O)OC)C6CCOCC6)[nH]c54)c3)cc1CC2)C(C)C [Example 291] | – | – | 1 to 990 | – | 0.103 | 1 to 990 | 1 to 999 | 1 to 999 | –
19 | COC(=O)N[C@@H](C)C(=O)N1CCC[C@H]1c1nc2c([nH]1)-c1ccc(-c3ccc4cc(-c5cnc([C@@H]6CCCN6C(=O)[C@H](NC(=O)OC)c6ccccc6)[nH]5)ccc4c3)cc1CC2 [Example 272] | > 5000 | > 44000 | 1000 to 4990 | > 44000 | – | – | – | – | –
20 | COC(=O)N[C@H](C(=O)N1CCC[C@H]1c1nc(-c2ccc3cc(-c4ccc(-c5c[nH]c([C@@H]6CCCN6C(=O)[C@@H](c6ccccc6)N(C6CC6)C6CC6)n5)cc4)ccc3c2)c[nH]1)C(C)C [Example 179] | > 5000 | 1000 to 44000 | – | 1000 to 44000 | 0.041 | – | – | – | –
21 | COC(=O)N[C@H](C(=O)N1CC2(CC2)C[C@H]1c1ncc(-c2ccc3c(c2)C(F)(F)c2cc(-c4cnc([C@@H]5[C@H]6CC[C@H](C6)N5C(=O)[C@H](NC(=O)OC)c5ccccc5)[nH]4)ccc2-3)[nH]1)C(C)C [Example 37] | – | – | – | – | – | – | – | – | EC50 [1, 12]: 1 to 990 pM; EC50 ([2]; 72 h, Table 2, 72 hours): 1000 to 44000 pM; EC50 [4, 13]: 1 to 999 pM; EC50 ([5]; 72 h): 0.004 nM
22 | COC(=O)N[C@@H](CC(F)F)C(=O)N1CCC[C@H]1c1ncc(-c2ccc3cc(-c4ccc(-c5cnc([C@@H]6CCCN6C(=O)[C@H](NC(=O)OC)c6ccccc6)[nH]5)cc4)ccc3c2)[nH]1 [Example 127] | 1 to 990 | 1 to 999 | – | 1 to 999 | 0.006 | – | – | – | –
